In article PMC10688702, “The indole motif is essential for the antitrypanosomal activity of N^5-substituted paullones” (PLOS ONE, 2023):
Where two headings read alike, the source gives them in different places.

Legend:
[1] = target: trypanothione synthetase of L. infantum (LiTryS) (Leishmania infantum, UniProt A4I2Z3); experiment: TryS activity screening assay on recombinant LiTryS; format: biochemical; settings: read-out: LiTryS activity [% at 30 μM]
Method: (§1) TryS from different trypanosomatids was produced in recombinant form with an N-terminal His-tag. The constructs pET-15b TbTryS and pET-28c(+)LiTryS were used to express TryS of T. b. brucei 427 (MITat1.4, GenBank accession protein id CAC87573.1), and L. infantum JPCM5 (GenBank accession protein id CAM69145.1). E. coli strain BL21 (DE3) served as the expression host. For TbTryS, the cells were cultured in a medium based in Terrific Broth and induction with isopropyl 1-thio-β-D-galactopyranoside (IPTG), while for LiTryS, the cells were cultured in ZYM-5052 auto-induction medium. For a detailed description of the expression, see Benítez et al.. The purification was performed by immobilised metal affinity chromatography in a HisTrap Fast Flow column (GE Healthcare) followed by size exclusion chromatography. […] The fractions containing recombinant TryS with ≥95% purity were pooled and concentrated to >10 mg protein/mL using a 10 kDa cut-off Amicon filter (Millipore, Billerica, CA). Glycerol was added at a final concentration of 40% (v/v). The samples were stored at -80°C. Enzyme purity and activity were assessed by SDS-PAGE (12%) under reducing conditions and by the end-point TryS assay (see TryS activity screening assay), respectively. Protein concentration was determined using the bicinchoninic acid assay with bovine serum albumin as standard. The protocols yielded 25–30 mg TbTryS or LiTryS per litre of culture medium and homogeneous specific activity.
(§2) For all TryS, ATP was used at 150 μM because of a high background signal at higher concentrations and Spd fixed at 2 mM, in agreement with the intracellular levels calculated from data reported in the literature for trypanosomatids. GSH was adjusted to 0.05 and 0.25 mM for TbTryS and LiTryS, respectively, to avoid substrate inhibition or to approach physiological concentrations. […] Microtiter plate wells were loaded with 5 μL of the test compound, DMSO (reaction control) or a TryS specific inhibitor (inhibition control) and 40 μL of MM solution. The reactions were then started by adding 5 μL of TryS (2 and 3*10^−5 μmol*min^-1*mL^-1 for LiTryS and TbTryS, respectively) and stopped after 15 min with 200 μL BIOMOL® GREEN reagent (Enzo Life Sciences). The compounds used as inhibition control were added at concentrations that inhibited 50% TryS activity: 30 μM and 150 nM MOL2008 for TbTryS and LiTryS, respectively. Blanks were prepared for each condition by adding 5 μL of screening reaction buffer instead of the enzyme. The TryS activity is calculated as follows: TrySactivity%=A650nmCi-A650nmCiB/A650nmE-A650nmEB*100%
(§3) A650 nm Ci is the mean absorbance at 650 nm for the reaction test with compound I (Ci), A650 nm CiB is the mean absorbance at 650 nm for the blank control with compound I (CiB), A650 nm E is the mean absorbance at 650 nm for the reaction control with DMSO (E) and A650 nm EB is the mean absorbance at 650 nm for the blank control with DMSO (EB). The errors were expressed as 2 standard deviations (SD), SD estimated as σ^n−1.

[2] = system: trypanothione synthetase of T. b. brucei (TbTryS); experiment: TryS activity screening assay on recombinant TbTryS; format: biochemical; settings: % activity at 30 μM compound, errors 2 SD
Method: as §1, §2, §3

[3] = system: bloodstream form of T. b. brucei strain 427; experiment: Viability assay for T. b. brucei (whole parasite, bioluminescence); format: cell-based; settings: 24 h; for T. b. brucei (BS) proliferation [% at 10 μM]: 10 μM compound; for EC50: read-out: T. b. brucei (BS) [EC50
Method: Viability assay for T. b. brucei. The bloodstream form of the monomorphic T. b. brucei strain 427, cell line 5141313, constitutively and stably expressing an ectopic copy of the Photinus pyralis red-shifted luciferase, was cultured in vitro with HMI-9 medium, supplemented with 10% fetal bovine serum, 10 U/mL penicillin (Gibco), 10 μg/mL streptomycin (Gibco), 0.2 μg/mL bleomycin (Jena Bioscience), 4 μg/mL G418 disulfate salt (Sigma-Aldrich) and 0.2 μg/mL puromycin (Invitrogen), inside a humidified incubator (Thermo Fisher Scientific) with controlled temperature (37°C) and CO2 (5%) in a 25 or 75 cm^2 vented-cap culture-flask. The anti-trypanosomal activity of compounds was evaluated in a 96-well culture plate containing 2.2 μL/well DMSO (negative control) or compounds dissolved in DMSO (1% final concentration), and 220 μL/well of a suspension of 1 × 10^5 parasites/mL. The plates were incubated at 37°C and 5% CO2 for 24 h. Next, each well was transferred to a 96-well black plate, and 20 μL of a solution containing d-luciferin (1.5 mg/mL in PBS glucose 1% w/v) and Triton X-100 (0.05% v/v) was added. Bioluminescence signal was measured in a LUMIstar OPTIMA Microplate luminometer using the following settings: 10 s shaking, 5 s/well acquisition, 0.2 s measurement delay, maximum gain, and 37°C. For the bioluminescence assay, parasite viability was calculated according to the following formula: parasiteviability%=BLcpd-BLblank/BLneg-BLblank*100%
BL refers to the mean of bioluminescence signal corresponding to the tested compound (cpd), the blank (blank, complete media containing 1% v/v DMSO), or the negative control (neg, parasites treated with 1% v/v DMSO). EC50 values were determined from concentration-response curves fitted to a four-parameter sigmoid equation using the GraphPad Prism software (version 6.0). All errors are expressed as one SD, estimated as σ^n-1. For a detailed explanation of the protocol, see Dibello et al..

[4] = system: murine macrophages J774.A1; experiment: Cytotoxicity assays on murine macrophages (WST-1); format: cell-based; settings: error 1 SD; for Macrophage toxicity [% at 30 μM]: % cell death at 30 μM
Method: Cytotoxicity assays on murine macrophages. Murine macrophages from the cell line J774.A1 (ATCC® TIB-67TM) were cultivated under a humidified 5% CO2/95% air atmosphere at 37°C in Dulbecco’s modified Eagle’s medium (DMEM) supplemented with 10% (v/v) FBS, 10 U/mL penicillin and 10 μg/mL streptomycin. The experimental protocol for the determination of EC50 values was identical as described by Demoro et al. 2012 [71], with the following change: 200 μL/well of a cell suspension at 6 × 10^4 cells per mL was added in a 96-well culture plate and washed with 150 μL of DMEM. The cytotoxicity of the compounds was evaluated in triplicate using the WST-1 reagent (Roche). The control treatment included cells cultured in the presence of DMSO 1% (v/v). Absorbance at 450 nm (Ai 450 nm), corresponding to the formazan dye produced by metabolically active cells, was measured with an EL 800-microplate reader. The corrected absorbance values at 450 nm (Ai c 450 nm) were obtained by subtracting the corresponding absorbance value at 630 nm (Ai 630 nm) and the blank average (Ablank 450 nm): Aic450nm=Ai450nm-Ai630nm-Ablank450nm
Cell viability (%), with the number of viable cells proportional to the absorbance, was calculated as follows: cellviability%=Aic450nm/Anegativecontrolc450nm*100%
Ai c 450 nm refers to an absorbance obtained from cells treated with compound I at a specific concentration (i) and Anegative control c 450 nm refers to an absorbance obtained from cells in the DMSO-treated control (negative control). The errors were calculated using error propagations and are expressed as one SD, estimated as σ^n−1.

[5] = system: L. infantum amastigotes (intracellular, in J774.A1 macrophages); experiment: Viability assay for L. infantum amastigotes; format: cell-based; settings: Leishmania infantum, J774.A1, 24 h, read-out: L. infantum amastigote viability [% at 20 μM]
Method: Viability assay for L. infantum amastigotes. L. infantum promastigotes from the reference strain MHOM/MA/67/ITMAP263, stably transfected with a vector encoding a red-shifted luciferase gene (RE9HLUC; Branchini et al.; Benítez et al.) were grown in fresh complete RPMI medium (RPMI basic medium containing 25 mM HEPES, 10% v/v iFBS, 100 U/mL penicillin, 100 μg/mL streptomycin and 15 μg/mL hygromycin B) at 28°C in sealed culture flasks. Metacyclic promastigotes were obtained by a negative selection procedure using peanut agglutinin and used to infect murine macrophages (cell line J774.A1) at a 1:10 ratio for macrophages (5×10^6 cells): parasites (5×10^7 cells). 200 μL of this suspension was added per well to a 96-well culture microplate, which was then incubated at 37°C for 24 h in a 5% CO2/95% air atmosphere incubator. […] The culture microplate was incubated in the CO2 incubator for additional 24 h. Next, the supernatant was removed and the microplate wells were washed with pre-warmed PBS (200 μL). […] All conditions were tested in triplicates and the percentage amastigote viability was calculated as described for infective T. b. brucei, with errors expressed as one SD, estimated as σ^n-1.
A macrophage cell density correction factor based on the incorporation of propidium iodide was calculated and applied to normalise amastigote viability related to host cell density in the well. For a detailed explanation of the protocol, see Benítez et al..

Chain of trypanothione synthetase of L. infantum (LiTryS) (A4I2Z3 entry or part of it): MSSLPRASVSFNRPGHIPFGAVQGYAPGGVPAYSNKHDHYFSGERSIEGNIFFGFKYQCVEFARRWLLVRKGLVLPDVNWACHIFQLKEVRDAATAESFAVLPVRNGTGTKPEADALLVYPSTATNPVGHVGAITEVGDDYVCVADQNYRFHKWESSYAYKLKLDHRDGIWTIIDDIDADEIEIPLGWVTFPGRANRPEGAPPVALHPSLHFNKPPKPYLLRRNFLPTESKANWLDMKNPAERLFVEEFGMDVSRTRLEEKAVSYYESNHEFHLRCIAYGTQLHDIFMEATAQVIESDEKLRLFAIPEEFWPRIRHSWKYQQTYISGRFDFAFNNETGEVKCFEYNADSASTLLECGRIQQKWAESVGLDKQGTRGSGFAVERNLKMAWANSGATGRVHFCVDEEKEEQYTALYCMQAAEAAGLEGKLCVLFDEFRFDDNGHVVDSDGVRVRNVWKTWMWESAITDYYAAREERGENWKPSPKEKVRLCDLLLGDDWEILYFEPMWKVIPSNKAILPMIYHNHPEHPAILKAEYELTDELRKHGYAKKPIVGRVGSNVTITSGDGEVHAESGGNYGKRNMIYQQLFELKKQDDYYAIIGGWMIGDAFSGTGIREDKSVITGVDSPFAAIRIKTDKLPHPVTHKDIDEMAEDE

Row | SMILES | activity at 30 µM [1] [%] | TbTryS activity [% at 30 μM] [2] [%] | T. b. brucei (BS) proliferation [% at 10 μM] [3] [%] | EC50 ([3]; Trypanosoma brucei) [µM] | Macrophage toxicity [% at stated conc.] ([4]; % cell death at 60 μM) [%] | EC50 [3] [µM] | Macrophage toxicity [% at stated conc.] ([4]; % cell death at 100 μM) [%] | viability at 20 µM [5] [%] | Macrophage toxicity [% at 30 μM] [4] [%]
1 | CN(CCNC(=O)CN1C(=O)Cc2c([nH]c3ccc(I)cc23)-c2ccc(Cl)cc21)C(=O)OC(C)(C)C [10a, tert-Butyl {2-[2-(3-chloro-9-iodo-6-oxo-7,12-dihydrobenzo[2,3]azepino[4,5-b]indol-5(6H)-yl)acetamido]ethyl}(methyl)carbamate] | 38.3 ± 4.8 | 90.2 ± 13.2 | 0.0 ± 1.2 | 5.3 ± 1.3 | 75.9 ± 9.9 | – | – | – | –
2 | CN(CCNC(=O)CN1C(=O)Cc2c([nH]c3ccc(C(F)(F)F)cc23)-c2ccc(Cl)cc21)C(=O)OC(C)(C)C [10c, tert-Butyl {2-[2-(3-chloro-6-oxo-9-trifluoromethyl-7,12-dihydrobenzo[2,3]azepino[4,5-b]indol-5(6H)-yl)acetamido]ethyl}(methyl)carbamate] | 43.2 ± 9.1 | 95.2 ± 13.2 | 0.0 ± 1.0 | 11.6 ± 1.8 | – | ~12 | 94.9 ± 7.1 | – | –
3 | CC(C)(C)OC(=O)N1CCN(CCNC(=O)CN2C(=O)Cc3ccccc3-c3ccccc32)CC1 [4b, tert-Butyl 4-{2-[2-(6-oxo-6,7-dihydro-5H-dibenzo[b,d]azepin-5-yl)acetamido]ethyl}piperazine-1-carboxylate] | 103 ± 8.6 | – | – | – | – | – | – | 93.9 ± 6.6 | 40
4 | CC(C)(C)OC(=O)CN1C(=O)Cc2ccccc2-c2ccccc21 [compound 18, tert-Butyl 2-(6-oxo-6,7-dihydro-5H-dibenzo[b,d]azepin-5-yl)acetate] | 99.4 ± 3 | – | – | – | – | – | – | – | 60
5 | CN(CCNC(=O)CN1C(=O)Cc2c([nH]c3ccc(Cl)cc23)-c2ccc(Cl)cc21)C(=O)OC(C)(C)C [10b, tert-Butyl {2-[2-(3,9-dichloro-6-oxo-7,12-dihydrobenzo[2,3]azepino[4,5-b]indol-5(6H)-yl)acetamido]ethyl}(methyl)carbamate] | 35.4 | 94.2 ± 17.1 | 0.0 ± 1.4 | 1.9 ± 1.2 | 47.9 ± 4.8 | – | – | – | –
